Source: article PMC5967867, “An NMDAR positive and negative allosteric modulator series share a binding site and are interconverted by methyl groups” (eLife, 2018)
Where two headings read alike, the source gives them in different places. Marks after values point to notes of the source that are not given here.

Tests used:
Assay type in all cases: cell-based
[1] = target: GluN1/GluN2B NMDARs (Rattus norvegicus, UniProt P35439+Q00960); assay: Two-electrode voltage-clamp recordings, Xenopus laevis oocytes expressing GluN1/GluN2B; conditions: for Emax: read-out: Maximal Degree of Modulation (% of control)
GluN1/GluN2B NMDARs, sequence (Q00960 27-1482, other chains not shown): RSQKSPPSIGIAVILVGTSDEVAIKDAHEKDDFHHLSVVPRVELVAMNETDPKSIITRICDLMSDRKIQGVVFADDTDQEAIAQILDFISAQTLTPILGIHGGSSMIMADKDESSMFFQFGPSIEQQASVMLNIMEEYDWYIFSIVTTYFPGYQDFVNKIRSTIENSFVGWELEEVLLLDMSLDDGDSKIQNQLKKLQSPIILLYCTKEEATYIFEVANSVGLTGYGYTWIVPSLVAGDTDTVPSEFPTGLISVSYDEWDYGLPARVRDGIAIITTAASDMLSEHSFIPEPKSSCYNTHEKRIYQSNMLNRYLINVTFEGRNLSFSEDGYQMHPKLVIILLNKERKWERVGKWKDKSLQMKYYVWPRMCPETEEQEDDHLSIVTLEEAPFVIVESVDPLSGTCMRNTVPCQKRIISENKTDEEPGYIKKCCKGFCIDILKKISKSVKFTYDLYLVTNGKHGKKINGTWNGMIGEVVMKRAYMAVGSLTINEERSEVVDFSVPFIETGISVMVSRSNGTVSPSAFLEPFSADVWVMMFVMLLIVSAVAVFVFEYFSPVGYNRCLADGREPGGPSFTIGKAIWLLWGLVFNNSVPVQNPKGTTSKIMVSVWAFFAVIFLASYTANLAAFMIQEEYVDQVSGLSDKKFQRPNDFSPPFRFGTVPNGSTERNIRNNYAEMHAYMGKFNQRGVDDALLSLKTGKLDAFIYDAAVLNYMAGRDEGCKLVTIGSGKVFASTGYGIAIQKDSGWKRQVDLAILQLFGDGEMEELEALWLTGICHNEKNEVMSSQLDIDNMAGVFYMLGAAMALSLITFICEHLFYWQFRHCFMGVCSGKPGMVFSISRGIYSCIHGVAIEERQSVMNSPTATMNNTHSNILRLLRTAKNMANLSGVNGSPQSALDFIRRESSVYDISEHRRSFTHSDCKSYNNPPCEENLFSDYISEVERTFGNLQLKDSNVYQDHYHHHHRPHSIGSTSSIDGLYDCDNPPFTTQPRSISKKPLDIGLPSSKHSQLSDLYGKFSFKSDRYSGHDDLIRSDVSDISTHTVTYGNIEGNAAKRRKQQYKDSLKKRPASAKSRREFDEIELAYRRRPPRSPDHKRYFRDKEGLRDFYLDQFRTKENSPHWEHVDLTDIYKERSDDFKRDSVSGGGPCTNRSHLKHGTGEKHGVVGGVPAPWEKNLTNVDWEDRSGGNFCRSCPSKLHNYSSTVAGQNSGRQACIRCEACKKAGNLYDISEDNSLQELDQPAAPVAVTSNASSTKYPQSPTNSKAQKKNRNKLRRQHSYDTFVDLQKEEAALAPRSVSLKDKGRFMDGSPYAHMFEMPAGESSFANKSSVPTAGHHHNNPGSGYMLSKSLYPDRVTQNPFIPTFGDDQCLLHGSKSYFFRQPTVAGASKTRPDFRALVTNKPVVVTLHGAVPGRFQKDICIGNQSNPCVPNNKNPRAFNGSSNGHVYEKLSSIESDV
Procedure: (§1) cDNAs for rat wild type NMDAR subunits GluN1-1a (GenBank U11418, U08261; hereafter GluN1 or GluN1a), GluN1-1b (U08263, hereafter GluN1b), GluN2A (D13211), GluN2B (U11419), GluN2C (M91563), and GluN2D (L31611, modified as described in [Monyer et al., 1994]) were provided by Drs. S. Heinemann (Salk Institute), S. Nakanishi (Kyoto University), and P. Seeburg (University of Heidelberg). Site-directed mutagenesis was conducted using the QuikChange kit (Agilent Technologies, Santa Clara, CA) following the recommended protocol. DNA sequencing was used to verify all mutations. The amino acid numbering system started with the initiating methionine as residue number one. For expression in Xenopus laevis oocytes, cDNA constructs were linearized by restriction enzymes, and subsequently used to synthesize in vitro cRNAs following the manufacturer’s protocol (mMessage mMachine, Ambion, ThermoFisher Scientific, Waltham, MA).
(§2) Xenopus laevis stage VI oocytes (Ecocyte Biosciences, Austin, TX) were injected as previously described ([Hansen et al., 2013]) 2–7 days prior to recording with cRNA encoding the NMDAR subunits and stored at 15°C in media containing (in mM) 88 NaCl, 2.4 NaHCO3, 1 KCl, 0.33 Ca(NO3)2, 0.41 CaCl2, 0.82 MgSO4, 5 Tris-HCl; pH was adjusted to 7.4 with NaOH and the solution supplemented with 1 U/mL penicillin, 0.1 mg/mL gentamicin sulfate, and 1 μg/mL streptomycin. Two-electrode voltage-clamp recordings were performed at room temperature (21–23°C) using different internal solutions for voltage and current electrodes (0.3 M and 3.0 M KCl, respectively). All extracellular solutions were made from a solution containing (in mM) 90 NaCl, 1 KCl, 10 HEPES, 0.5 BaCl2, 0.01 EDTA (pH 7.4 with NaOH). Experiments were performed using an eight port Modular Valve Positioner (Hamilton Company, Reno, NV) and controlled by custom software (Easy Oocyte, Emory University, Atlanta, GA)to exchange solutions. Oocyte currents were recorded at a holding potential of −40 mV using a two-electrode voltage-clamp amplifier (OC-725B or OC-725C, Warner Instruments, Hamden, CT). […] In MTSEA experiments, fresh MTSEA solutions (0.2 mM) were prepared and utilized in less than 30 min to limit compound degradation.
(§3) Measurements are given as mean ± SEM unless otherwise indicated. The number of replicate experiments used was chosen to ensure a power level of at least 0.80 when α = 0.05 and when detecting appropriate effect sizes. EC50 and IC50 values and confidence intervals reported were calculated by averaging the log(EC50) or log(IC50) value, determining confidence intervals for mean log(EC50) or log(IC50), and converting back to units of molarity. Statistical significance evaluations (α set to 0.05) were performed using a one-way ANOVA with Dunnett’s multiple comparison test, a paired t–test, or other appropriate tests as described.

[2] = target: GluN1/GluN2C NMDARs (Rattus norvegicus, UniProt P35439+Q00961); assay: Two-electrode voltage-clamp recordings, Xenopus laevis oocytes expressing GluN1/GluN2C; conditions: for Modulation by 10 µM (% of control): 10 µM modulator; for Emax: read-out: Maximal Degree of Modulation (% of control)
Procedure: as §1, §2, §3

[3] = target: GluN1/GluN2A NMDARs (Rattus norvegicus, UniProt P35439+Q00959); assay: Two-electrode voltage-clamp recordings, Xenopus laevis oocytes expressing GluN1/GluN2A; conditions: for IC50: glutamate/glycine 100/30 µM; for EC50: read-out: EC50 (µM) [conf. int.]; for Emax: read-out: Maximal Degree of Modulation (% of control)
GluN1/GluN2A NMDARs, sequence (Q00959 23-1464, other chains not shown): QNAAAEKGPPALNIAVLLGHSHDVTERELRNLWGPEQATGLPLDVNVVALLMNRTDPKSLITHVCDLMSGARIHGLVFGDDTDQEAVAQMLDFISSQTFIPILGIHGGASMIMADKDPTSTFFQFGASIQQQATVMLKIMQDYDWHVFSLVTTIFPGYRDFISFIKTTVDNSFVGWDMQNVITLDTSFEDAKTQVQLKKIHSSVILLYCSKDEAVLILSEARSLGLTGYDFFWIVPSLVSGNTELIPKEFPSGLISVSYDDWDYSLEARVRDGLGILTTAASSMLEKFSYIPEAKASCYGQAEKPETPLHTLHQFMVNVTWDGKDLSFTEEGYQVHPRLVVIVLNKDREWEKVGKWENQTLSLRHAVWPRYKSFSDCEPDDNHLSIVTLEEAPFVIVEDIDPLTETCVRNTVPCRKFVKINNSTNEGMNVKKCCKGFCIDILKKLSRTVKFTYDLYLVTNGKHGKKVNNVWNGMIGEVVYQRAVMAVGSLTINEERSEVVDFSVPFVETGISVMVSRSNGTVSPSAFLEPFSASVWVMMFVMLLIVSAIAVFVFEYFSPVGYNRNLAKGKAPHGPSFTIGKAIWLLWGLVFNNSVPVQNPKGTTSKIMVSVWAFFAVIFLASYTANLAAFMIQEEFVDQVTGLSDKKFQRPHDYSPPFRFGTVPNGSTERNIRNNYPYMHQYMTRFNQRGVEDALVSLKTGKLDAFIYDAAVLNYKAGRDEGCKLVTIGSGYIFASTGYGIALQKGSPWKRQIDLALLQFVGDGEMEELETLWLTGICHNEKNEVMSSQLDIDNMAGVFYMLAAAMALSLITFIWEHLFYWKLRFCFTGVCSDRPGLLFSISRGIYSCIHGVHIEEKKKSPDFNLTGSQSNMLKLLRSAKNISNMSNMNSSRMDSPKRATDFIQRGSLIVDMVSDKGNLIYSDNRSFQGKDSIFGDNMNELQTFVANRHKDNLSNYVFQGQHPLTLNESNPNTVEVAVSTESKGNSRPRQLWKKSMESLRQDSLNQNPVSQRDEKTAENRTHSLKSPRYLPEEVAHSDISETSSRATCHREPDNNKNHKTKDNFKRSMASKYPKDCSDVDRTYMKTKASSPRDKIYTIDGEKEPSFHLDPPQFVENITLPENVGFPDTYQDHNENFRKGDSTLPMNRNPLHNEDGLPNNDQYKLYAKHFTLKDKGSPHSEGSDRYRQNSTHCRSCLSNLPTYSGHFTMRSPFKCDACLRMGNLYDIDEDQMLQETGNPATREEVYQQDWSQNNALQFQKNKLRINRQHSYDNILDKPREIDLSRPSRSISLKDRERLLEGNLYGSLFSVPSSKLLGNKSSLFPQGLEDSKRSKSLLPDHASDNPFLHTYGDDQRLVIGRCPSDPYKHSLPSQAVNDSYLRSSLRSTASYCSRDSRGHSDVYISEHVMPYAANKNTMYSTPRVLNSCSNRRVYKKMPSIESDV
Procedure: as §1, §2, §3

[4] = target: GluN1/GluN2D NMDARs (Rattus norvegicus, UniProt P35439+Q62645); assay: Two-electrode voltage-clamp recordings, Xenopus laevis oocytes expressing GluN1/GluN2D; conditions: for Emax: read-out: Maximal Degree of Modulation (% of control)
GluN1/GluN2D NMDARs, sequence (Q62645 28-1323, other chains not shown): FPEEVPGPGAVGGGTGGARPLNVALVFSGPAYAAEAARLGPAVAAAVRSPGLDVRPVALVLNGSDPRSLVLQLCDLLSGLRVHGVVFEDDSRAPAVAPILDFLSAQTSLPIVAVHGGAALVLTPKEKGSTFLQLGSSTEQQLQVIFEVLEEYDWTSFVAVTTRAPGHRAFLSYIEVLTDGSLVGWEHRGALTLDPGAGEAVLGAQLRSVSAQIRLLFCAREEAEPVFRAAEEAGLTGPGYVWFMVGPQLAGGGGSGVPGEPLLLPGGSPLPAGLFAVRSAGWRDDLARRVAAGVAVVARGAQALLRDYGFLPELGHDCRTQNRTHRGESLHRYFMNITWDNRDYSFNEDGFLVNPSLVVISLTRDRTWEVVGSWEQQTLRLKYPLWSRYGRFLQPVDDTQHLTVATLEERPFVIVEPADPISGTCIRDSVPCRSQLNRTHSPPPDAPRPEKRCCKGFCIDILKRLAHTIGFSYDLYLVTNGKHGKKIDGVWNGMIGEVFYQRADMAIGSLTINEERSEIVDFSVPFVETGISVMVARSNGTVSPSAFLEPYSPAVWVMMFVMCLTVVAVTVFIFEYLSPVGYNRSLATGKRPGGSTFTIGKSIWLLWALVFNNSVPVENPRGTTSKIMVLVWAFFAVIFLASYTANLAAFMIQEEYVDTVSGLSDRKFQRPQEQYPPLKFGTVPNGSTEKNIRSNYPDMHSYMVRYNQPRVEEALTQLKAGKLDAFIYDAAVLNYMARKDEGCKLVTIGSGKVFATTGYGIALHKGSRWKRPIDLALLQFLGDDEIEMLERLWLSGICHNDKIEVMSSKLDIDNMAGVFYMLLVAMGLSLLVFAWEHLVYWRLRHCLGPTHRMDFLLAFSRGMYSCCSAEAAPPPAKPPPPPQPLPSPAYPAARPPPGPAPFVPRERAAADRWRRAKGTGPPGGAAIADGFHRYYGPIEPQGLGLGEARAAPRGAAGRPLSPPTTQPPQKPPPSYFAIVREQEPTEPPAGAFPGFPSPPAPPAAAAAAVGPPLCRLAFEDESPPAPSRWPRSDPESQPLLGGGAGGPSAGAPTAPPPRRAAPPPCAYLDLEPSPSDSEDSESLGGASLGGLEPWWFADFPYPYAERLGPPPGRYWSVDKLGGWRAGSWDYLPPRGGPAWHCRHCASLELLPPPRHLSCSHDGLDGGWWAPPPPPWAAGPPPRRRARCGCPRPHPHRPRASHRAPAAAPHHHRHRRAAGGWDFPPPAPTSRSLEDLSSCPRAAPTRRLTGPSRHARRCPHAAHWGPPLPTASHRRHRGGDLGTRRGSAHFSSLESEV
Procedure: cDNAs for rat wild type NMDAR subunits GluN1-1a (GenBank U11418, U08261; hereafter GluN1 or GluN1a), GluN1-1b (U08263, hereafter GluN1b), GluN2A (D13211), GluN2B (U11419), Glu[…]), and Glu[…], modified as described in [Monyer et al., 1994]) were provided by Drs. S. Heinemann (Salk Institute), S. Nakanishi (Kyoto University), and P. Seeburg (University of Heidelberg). Site-directed mutagenesis was conducted using the QuikChange kit (Agilent Technologies, Santa Clara, CA) following the recommended protocol. DNA sequencing was used to verify all mutations. The amino acid numbering system started with the initiating methionine as residue number one. For expression in Xenopus laevis oocytes, cDNA constructs were linearized by restriction enzymes, and subsequently used to synthesize in vitro cRNAs following the manufacturer's protocol (mMessage mMachine, Ambion, ThermoFisher Scientific, Waltham, MA). […] All extracellular solutions were made from a solution containing (in mM) 90 NaCl, 1 KCl, 10 HEPES, 0.5 BaCl2, 0.01 EDTA (pH 7.4 with NaOH). Experiments were performed using an eight port Modular Valve Positioner (Hamilton Company, Reno, NV) and controlled by custom software (Easy Oocyte, Emory University, Atlanta, GA)to exchange solutions. Oocyte currents were recorded at a holding potential of -40 mV using a two-electrode voltage-clamp amplifier (OC-725B or OC-725C, Warner Instruments, Hamden, CT). […] Measurements are given as mean ± SEM unless otherwise indicated. […] EC50 and IC50 values and confidence intervals reported were calculated by averaging the log(EC50) or log(IC50) value, determining confidence intervals for mean log(EC50) or log(IC50), and converting back to units of molarity. Statistical significance evaluations (α set to 0.05) were performed using a one-way ANOVA with Dunnett's multiple comparison test, a paired t-test, or other appropriate tests as described.

[5] = +EU1794-27 10 µM, glutamate/glycine 100/30 µM, read-out: EU1794-2 IC50 (µM) [conf. int.]
[6] = +EU1794-27 20 µM, glutamate/glycine 100/30 µM, read-out: EU1794-2 IC50 (µM) [conf. int.]
[7] = read-out: IC50 (µM) [conf. int.]
[8] = saturating glutamate/glycine 100/30 µM, mean [95% CI], - = not fit, response at 30 µM differed by no more than 15% from control, read-out: EC50 (µM) [conf. int.]
[9] = saturating glutamate/glycine 100/30 µM, mean ± SEM
[10] = sub-saturating glutamate/glycine 0.6/0.2 µM, read-out: EC50 (µM) [conf. int.]
[11] = sub-saturating glutamate/glycine 0.6/0.2 µM
[12] = +EU1794-27 3 µM, glutamate/glycine 100/30 µM, read-out: EU1794-2 IC50 (µM) [conf. int.]
[13] = glutamate/glycine 100/30 µM, no second modulator (+EU1794-27 0 µM), read-out: IC50 (µM) [conf. int.]
[14] = saturating glutamate/glycine 100/30 µM, mean [95% CI], read-out: EC50 (µM) [conf. int.]
[15] = no second modulator (+EU1794-27 0 µM), read-out: IC50 (µM) [conf. int.]
[16] = saturating glutamate/glycine 100/30 µM, mean [95% CI], - = not fit, response at 30 µM differed by no more than 15% from control
[17] = sub-saturating glutamate/glycine 1/0.3 µM, read-out: EC50 (µM) [conf. int.]
[18] = sub-saturating glutamate/glycine 1/0.3 µM
[19] = Glu/Gly 1/0.3 µM (sub-saturating)
[20] = +EU1794-2 1 µM, glutamate/glycine 100/30 µM, read-out: EU1794-27 EC50 (µM) [conf. int.]
[21] = +EU1794-2 3 µM, glutamate/glycine 100/30 µM, read-out: EU1794-27 EC50 (µM) [conf. int.]
[22] = sub-saturating glutamate/glycine 2/0.6 µM

Structure (SMILES) | IC50 [1, 7] [µM] | EC50 [1, 8] [µM] | Emax [1, 9] [%] | Modulation by 10 µM (% of control) ([2]; Glu/Gly 100/30 µM) | IC50 [2, 13] [µM] | EC50 [2, 14] [µM] | Emax [2, 9] [%] | IC50 [3, 15] [µM] | EC50 [3, 16] [µM] | Emax [3, 9] [%] | IC50 [4, 13] [µM] | EC50 [4, 14] [µM] | Emax [4, 9] [%] | EC50 [4, 10] [µM] | Emax [4, 11] [%] | EC50 [1, 17] [µM] | Emax [1, 18] [%] | Modulation by 10 µM (% of control) [2, 19] | EC50 [2, 17] [µM] | Emax [2, 18] [%] | further results
CCOC(=O)c1c(NC(=O)CC2SC(=N)NC2=O)sc2c1CCC(C)C2 (stereo not drawn) [EU1794-2, ethyl 2-(2-(2-imino-4-oxothiazolidin-5-yl)acetamido)-6-methyl-4,5,6,7-tetrahydrobenzo[b]thiophene-3-carboxylate] | 1.2 | 1.2 | 10 | 16 ± 1.0 % of control | 0.21 | 0.26 | 14 | 0.6 | 0.6 | 6 | 0.2 | 0.2 | 14 | 0.32 | 24 |  |  |  |  |  | IC50 [1, 5]: 3.5 µM; IC50 [1, 6]: 12 µM; EC50 [1, 10]: 1.4 µM; Emax [1, 11]: 28%; Modulation by 10 µM (% of control) ([2]; Glu/Gly 0.6/0.2 µM (sub-saturating)): 43 ± 2.1 % of control; IC50 [2, 12]: 1.2 µM; IC50 [2, 5]: 2.4 µM; IC50 [2, 6]: 6 µM; EC50 [2, 10]: 0.72 µM; Emax [2, 11]: 41%; IC50 ([3]; +EU1794-27 3 µM, read-out: EU1794-2 IC50 (µM) [conf. int.]): 2.5 µM; IC50 ([3]; +EU1794-27 10 µM, read-out: EU1794-2 IC50 (µM) [conf. int.]): 3.6 µM; IC50 ([3]; +EU1794-27 20 µM, read-out: EU1794-2 IC50 (µM) [conf. int.]): 8 µM; EC50 [3, 11]: 1.8 µM; Emax [3, 11]: 37%; IC50 [4, 12]: 1.4 µM; IC50 [4, 5]: 2.7 µM; IC50 [4, 6]: 7.3 µM
CCOC(=O)c1c(NC(=O)CC2SC(=N)NC2=O)sc2c1CCCC2 (stereo not drawn) [EU1794-4, ethyl 2-(2-(2-imino-4-oxothiazolidin-5-yl)acetamido)-4,5,6,7-tetrahydrobenzo[b]thiophene-3-carboxylate] | 2.6 | 2.6 | 67 | 54 ± 1.6 % of control | 0.42 | 0.42 | 52 | 2.2 | 2.2 | 32 | 0.36 | 0.36 | 51 |  |  | 4.3 | 210 | 140 ± 12 % of control | 15 | 220 | Fold Difference (glutamate EC50) ([1]; control vs 10 µM EU1794-4): 2.0^†; Fold Difference (glycine EC50) ([1]; control vs 10 µM EU1794-4): 3.3^†; Modulation by 10 µM (% of control) ([2]; Glu/Gly 0.3/0.09 µM (sub-saturating)): 660 ± 110 % of control; Fold Difference (glutamate EC50) ([2]; control vs 10 µM EU1794-4): 3.2^†; Fold Difference (glycine EC50) ([2]; control vs 10 µM EU1794-4): 4.6^†; Fold Difference (glutamate EC50) ([3]; control vs 10 µM EU1794-4): 2.4^†; Fold Difference (glycine EC50) ([3]; control vs 10 µM EU1794-4): 2.8^†; EC50 [3, 18]: 3.9 µM; Emax [3, 18]: 500%; Fold Difference (glutamate EC50) ([4]; control vs 10 µM EU1794-4): 3.9^†; Fold Difference (glycine EC50) ([4]; control vs 10 µM EU1794-4): 8.9^†; EC50 ([4]; sub-saturating glutamate/glycine 0.3/0.09 µM, read-out: EC50 (µM) [conf. int.]): 14 µM; Emax ([4]; sub-saturating glutamate/glycine 0.3/0.09 µM): 540%
CC(C)(C)OC(=O)c1c(NC(=O)CC2SC(=N)NC2=O)sc2c1CCCC2 (stereo not drawn) [EU1794-27, tert-butyl 2-(2-(2-imino-4-oxothiazolidin-5-yl)acetamido)-4,5,6,7-tetrahydrobenzo[b]thiophene-3-carboxylate] |  | 1.4 | 130 | 190 ± 10 % of control |  | 2.8 | 230 |  | 7.4 | 52 |  | 2.4 | 250 | 8.3 | 580 | 6.3 | 400 | 480 ± 31 % of control | 5 | 680 | EC50 [1, 20]: 6 µM; EC50 [1, 21]: 8.4 µM; Fold Difference (glutamate EC50) ([1]; control vs 10 µM EU1794-27): 2.0^†; Fold Difference (glycine EC50) ([1]; control vs 10 µM EU1794-27): 2.9^†; EC50 [2, 20]: 7.3 µM; EC50 [2, 21]: 7.3 µM; Fold Difference (glutamate EC50) ([2]; control vs 10 µM EU1794-27): 3.3^†; Fold Difference (glycine EC50) ([2]; control vs 10 µM EU1794-27): 2.4; Fold Difference (glutamate EC50) ([3]; control vs 10 µM EU1794-27): 2.3^†; Fold Difference (glycine EC50) ([3]; control vs 10 µM EU1794-27): 1.6; EC50 [3, 22]: 8.1 µM; Emax [3, 22]: 340%; EC50 [4, 20]: 7.5 µM; EC50 [4, 21]: 7.8 µM; Fold Difference (glutamate EC50) ([4]; control vs 10 µM EU1794-27): 5.3^†; Fold Difference (glycine EC50) ([4]; control vs 10 µM EU1794-27): 4.9^†
